The results in this text go back to patent publication US20090202596A1, “PHARMACEUTICAL COMPOSITIONS WITH BIOLOGICAL BARRIERS PERMEATION ENHANCING PROPERTIES” (FARMATRON LIMITED, priority 2006, published 2009).

A short description of the data set: In vitro solubilization kinetics in buffer solution. The format is physicochemical. Conditions: buffer pH 7.4, 37° C., HPLC. The protocol:
Solubilization Kinetics of the Double Microemulsions of the Invention
The “in vitro” solubilization kinetics was determined in buffer solution (pH 7.4, 37° C.); sample of the double microemulsion under testing is dispersed in tubes filled with 50 ml of buffer solution and placed over a thermostated shaking plate; at predetermined time intervals samples of the solution were filtered and then ultra-centrifuged; drug concentration was determined by HPLC, data are reported in Table 2.

With `CCC(C)n1ncn(-c2ccc(N3CCN(c4ccc(OCC5COC(Cn6cncn6)(c6ccc(Cl)cc6Cl)O5)cc4)CC3)cc2)c1=O` (centres unmarked) [Itraconazole pure dispersion, Itraconazole], the Drug concentration is, setting by setting: (0.5 hr) 0.05 µg/mL; (1 hr) 0.1 µg/mL; (3 hr) 0.3 µg/mL; (8 hr) 0.5 µg/mL; (24 hr) 1.5 µg/mL.
